According to US6881728B1, “14-β, 17-α-hydroxymethylandrostane derivatives as androgens” (Akzo Nobel N.V., priority 1999, dated 2005):

Target: T1, human androgen receptor (Homo sapiens, UniProt P10275)
T1 construct: host or cells: MCF-7 cytosol (endogenous) or CHO cells transfected with hAR
T1 sequence (P10275 1-920): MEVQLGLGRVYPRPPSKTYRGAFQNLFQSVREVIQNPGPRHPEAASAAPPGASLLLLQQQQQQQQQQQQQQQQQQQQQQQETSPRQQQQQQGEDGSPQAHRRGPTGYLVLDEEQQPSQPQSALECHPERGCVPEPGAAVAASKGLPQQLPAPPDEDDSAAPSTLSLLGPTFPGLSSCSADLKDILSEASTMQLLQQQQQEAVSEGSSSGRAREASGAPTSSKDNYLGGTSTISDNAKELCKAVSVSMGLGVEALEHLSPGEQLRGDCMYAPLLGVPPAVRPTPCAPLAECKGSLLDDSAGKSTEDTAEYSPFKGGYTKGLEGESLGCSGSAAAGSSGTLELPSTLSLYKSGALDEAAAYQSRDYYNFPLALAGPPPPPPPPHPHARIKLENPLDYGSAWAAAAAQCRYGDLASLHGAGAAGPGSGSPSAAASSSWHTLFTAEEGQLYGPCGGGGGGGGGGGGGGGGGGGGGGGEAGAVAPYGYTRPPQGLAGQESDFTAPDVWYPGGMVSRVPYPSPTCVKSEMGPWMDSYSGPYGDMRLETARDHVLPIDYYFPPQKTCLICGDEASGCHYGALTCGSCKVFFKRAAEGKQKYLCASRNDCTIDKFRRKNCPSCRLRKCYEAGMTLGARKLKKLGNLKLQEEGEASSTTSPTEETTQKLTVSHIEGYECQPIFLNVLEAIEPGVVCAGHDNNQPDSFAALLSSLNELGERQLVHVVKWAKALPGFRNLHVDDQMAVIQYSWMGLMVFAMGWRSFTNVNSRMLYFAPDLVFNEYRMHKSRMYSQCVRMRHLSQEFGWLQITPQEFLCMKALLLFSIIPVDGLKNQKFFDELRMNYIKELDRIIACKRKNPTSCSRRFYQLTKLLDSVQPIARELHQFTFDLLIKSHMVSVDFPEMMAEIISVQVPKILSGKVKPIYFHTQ
Test: androgenic activity rating (procedures described above; which one underlies the rating is not stated)
Parameters: key: +: androgenic activity found; ++: high androgenic activity; +++: excellent androgenic activity
Protocol: Androgenic activity can be measured in various ways. Thus, the potency of androgens can be determined in vitro using the cytoplasmic androgen receptor from human breast tumor cells (MCF-7 cell line); see Bergink, E. W. et al, Comparison of the receptor binding properties of nandrolone and testosterone under in vitro and in vivo conditions, J. Steroid Biochem. 22, 831-836 (1985). It is also possible to use Chinese hamster ovary (CHO) cells transfected with the human androgen receptor (incubation time 16 h, temperature 4° C.) and compared with the affinity of 5α-dihydrotestosterone [according to the procedure described by Bergink, E. W. et al, J. Steroid Biochem. 12, 1563-1570 (1983)]. The transactivative androgen activity of the compounds of the invention can be measured, e.g. in Chinese hamster ovary cells (CHO) transfected with the human androgen receptor (hAR), in combination with a mouse mammary tumor virus (MMTV), and luciferase […] (incubation time 16 h, temperature 37° C.) and compared with the activity of 5α-dihydrotestosterone [according to the procedure described by Schoonen, W. G. E. J. et al, Analyt. Biochem. 261, 222-224 (1998)]. For the in vivo potency determination of androgens the classical Hershberger test can be used. In this test the androgenic (increase in prostate weight) and anabolic activities [increase of the musculus levator ani (MLA)] of a compound are tested in immature castrated rats after daily administration for 7 days; see Hershberger, L. G. et al, Myotrophic activity of 19-Nortestosterone and other steroids determined by modified levator ani muscle method, Proceedings of the society for experimental biology and medicine 83, 175-180 (1953). Additionally, the effect of an androgenic compound on LH suppression can be tested in mature castrated rats according to Kumar, N. et al, The biological activity of 7alpha-methyl-19-nortestosterone is not amplified in male reproductive tract as is that of testosterone, Endocrinology 130, 3677-3683 (1992).
A plurality of compounds according to the invention were tested for androgenic activity (the procedures for which have been described above) and rated in the Table below according to the following scheme: • + androgenic activity found; • ++ high androgenic activity; • +++ excellent androgenic activity; • nd no data available

| Compound | Rating (androgenic activity) |
| --- | --- |
| CCCC[C@H]1CC[C@H](C(=O)OC[C@@H]2CC[C@@H]3[C@H]4[C@H](CC[C@]23C)[C@H]2CCC(=O)C=C2C[C@H]4C)CC1 (relative stereo) [Example 33d, (7α,14β,17α)-17-[[[(trans-4-Butylcyclohexyl)carbonyl]oxy]methyl]-7-methylestr-4-en-3-one] | + |
| C[C@]12CC[C@@H]3C4=C(CC[C@H]3[C@H]1CC[C@H]2CO)CC(=O)CC4 [Example 2, (14β,17α)-17-(Hydroxymethyl)estr-5(10)-en-3-one] | ++ |
| C[C@]12CCC3=C4CCC(=O)C=C4CC[C@H]3[C@H]1CC[C@H]2CO [Example 3, (14β,17α)-17-(Hydroxymethyl)estra-4,9-dien-3-one] | + |
| C[C@@H]1CC2=CC(=O)CC[C@@H]2[C@H]2CC[C@]3(C)[C@H](CO)CC[C@@H]3[C@@H]21 [Example 4, (7α,14β,17α)-17-(Hydroxymethyl)-7-methylestr-4-en-3-one] | +++ |
| C[C@@H]1CC2=CC(=O)CC[C@@H]2[C@H]2CC[C@@]3(C)[C@H](C=C[C@H]3CO)[C@@H]21 [Example 5, (7α,14β,17α)-17-(hydroxymethyl)-7-methylestra-4,15-dien-3-one] | +++ |
| C[C@@H]1CC2=CC(=O)CC[C@@H]2[C@H]2CC[C@]3(C)[C@H](CO)CC[C@]3(C)[C@@H]21 [Example 6, (7α,14β,17α)-17-(Hydroxymethyl)-7,14-dimethylestr-4-en-3-one] | ++ |
| C[C@@H]1CC2=CC(=O)CC[C@@H]2[C@H]2CC[C@]3(C)[C@H](CO)C[C@@H](C)[C@@H]3[C@@H]21 [Example 7, (7α,14β,15β,17α)-17-(Hydroxymethyl)-7,15-dimethylestr-4-en-3-one] | + |
| C[C@@H]1CC2=CC(=O)CC[C@@H]2[C@H]2CC[C@@]3(C)[C@H](C[C@@H](C)[C@H]3CO)[C@@H]21 [Example 8, (7α,14β,16α,17α)-17-(Hydroxymethyl)-7,16-dimethylestr-4-en-3-one] | + |
| C[C@@H]1CC2=CC(=O)CC[C@@H]2[C@H]2CC[C@@]3(C)[C@H](C[C@H](C)[C@H]3CO)[C@@H]21 [Example 9, (7α,14β,16β,17α)-17-(Hydroxymethyl)-7,16-dimethylestr-4-en-3-one] | ++ |
| C[C@@H]1CC2=CC(=O)CC[C@@H]2[C@H]2CC[C@@]3(C)[C@H]([C@@H]4C[C@@H]4[C@H]3CO)[C@@H]21 [Example 10, (7α,14β,15β,16β,17α)-17-(Hydroxymethyl)-7-methyl-15,16-methyleneestr-4-en-3-one] | ++ |
| CC1CC2=CC(=O)CCC2C2CCC3(C)C(CCC3(C)CO)C12 (stereo not drawn) [Example 11, (7α,14β,17α)-17-(Hydroxymethyl)-7,17-dimethylestr-4-en-3-one] | + |
| C[C@@H]1CC2=CC(=O)CC[C@@H]2[C@H]2CC[C@@]3(C)[C@H](CC[C@]3(F)CO)[C@@H]21 [Example 12, (7α,14β,17α)-17-Fluoro-17-(hydroxymethyl)-7-methylestr-4-en-3-one] | +++ |
| C[C@@H]1CC2=CC(=O)CC[C@@H]2[C@H]2CC[C@@]3(C)[C@H](CC[C@@]3(O)CO)[C@@H]21 [Example 13, (7α,14β,17β)-17-Hydroxy-17-(hydroxymethyl)-7-methylestr-4-en-3-one] | + |
| CC[C@@H]1CC2=CC(=O)CC[C@@H]2[C@H]2CC[C@]3(C)[C@H](CO)CC[C@@H]3[C@H]12 [Example 14, (7α,14β,17α)-7-Ethyl-17-(hydroxymethyl)estr-4-en-3-one] | + |
| C=C[C@@H]1CC2=CC(=O)CC[C@@H]2[C@H]2CC[C@]3(C)[C@H](CO)CC[C@@H]3[C@@H]21 [Example 15, (7α,14β,17α)-7-Ethenyl-17-(hydroxymethyl)estr-4-en-3-one] | ++ |
| CC(O)C1CCC2C3C(C)CC4=CC(=O)CCC4C3CCC12C [Example 16a, (7α,14β,17α,20S)-20-Hydroxy-7-methyl-19-norpregn-4-en-3-one] | ++ |
| CC(O)C1CCC2C3C(C)CC4=CC(=O)CCC4C3CCC12C [Example 16b, (7α,14β,17α,20R)-20-Hydroxy-7-methyl-19-norpregn-4-en-3-one] | + |
| CCC(O)[C@@H]1CC[C@@H]2[C@H]3[C@H](CC[C@@]21C)[C@H]1CCC(=O)C=C1C[C@H]3C (stereo partly drawn) [Example 17b, [7α,14β,17α(R)]-17-(1-Hydroxypropyl)-7-methylestr-4-en-3-one] | + |
| C=CC(O)[C@@H]1CC[C@@H]2[C@H]3[C@H](CC[C@@]21C)[C@H]1CCC(=O)C=C1C[C@H]3C (stereo partly drawn) [Example 18a, [7α,14β,17α(S)]-17-(1-Hydroxy-2-propenyl)-7-methylestr-4-en-3-one] | + |
| C#C[C@H](O)[C@@H]1CC[C@@H]2[C@H]3[C@H](CC[C@@]21C)[C@H]1CCC(=O)C=C1C[C@H]3C [Example 18c, [7α,14β,17α(R)]-17-(1-Hydroxy-2-propynyl)-7-methylestr-4-en-3-one] | + |
| C#C[C@@H](O)[C@@H]1CC[C@@H]2[C@H]3[C@H](CC[C@@]21C)[C@H]1CCC(=O)C=C1C[C@H]3C [Example 18d, [7α,14β,17α(S)]-17-(1-Hydroxy-2-propynyl)-7-methylestr-4-en-3-one] | + |
| C=CCC(O)C1CCC2C3C(C)CC4=CC(=O)CCC4C3CCC12C [Example 18g, (7α,14β,17α,20S)-20-Hydroxy-7-methyl-19,21-dinorchola-4,23-dien-3-one] | + |
| C=CC[C@@H](O)[C@@H]1CC[C@@H]2[C@H]3[C@H](CC[C@@]21C)[C@H]1CCC(=O)C=C1C[C@H]3C [Example 18h, (7α,14β,17α,20R)-20-Hydroxy-7-methyl-19,21-dinorchola-4,23-dien-3-one] | + |
| CC1CC2=CC(=O)CCC2C2CCC3(C)C(CCC3C(C)(C)O)C12 (stereo not drawn) [Example 19, (7α,14β,17α)-20-Hydroxy-7,20-dimethyl-19-norpregn-4-en-3-one] | + |
| CC(O)C1C2CC2C2C3C(C)CC4=CC(=O)CCC4C3CCC12C [Example 20a, (7α,14β,15β,16β,17α,20S)-20-Hydroxy-7-methyl-15,16-methylene-19-norpregn-4-en-3-one] | ++ |
| CC(O)C1C2CC2C2C3C(C)CC4=CC(=O)CCC4C3CCC12C [Example 20b, (7α,14β,15β,16β,17α,20R)-20-Hydroxy-7-methyl-15,16-methylene-19-norpregn-4-en-3-one] | + |
| CC1CC2=CC(=O)CCC2C2CCC3(C)C(C4CC4C3C(C)(C)O)C12 (stereo not drawn) [Example 21, (7α,14β,15β,16β,17α)-20-Hydroxy-7,20-dimethyl-15,16-methylene-19-norpregn4-en-3-one] | + |
